Experimental findings from PubChem BioAssay (NCI) are described below.

Values joined by “and” are separate entries in the source; they are usually repeats but may differ in a detail not shown here. Equal values may be shown once.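 Where inhibition never reached the appropriate level, the endpoint shown equals the highest concentration tested. Otherwise, values were interpolated linearly from a five-concentration, 48-hour dose response in 96-well plates. At the GI50, growth is halved. The concentration for full growth arrest is given as TGI.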

Among the test systems are SK-MEL-5 melanoma; SNB-75 CNS; BT-549 breast; CCRF-CEM leukemia; OVCAR-3 ovarian; NCI-H23 lung; HCT-116 colon; SR leukemia; K-562 leukemia; MDA-MB-435.
What all share (experiment): DTP human tumour cell line panel, 48 h

One may read the GI50 as the concentration giving 50% growth inhibition. The TGI is the concentration at which net growth stops. A higher TGI goes with lower sensitivity of the cells. For `NC(CS)C(=O)NCCNc1ccc(NCCNC(=O)C(N)CS)c2c1C(=O)c1c(O)ccc(O)c1C2=O` (stereo not given), the concentration for 50% growth inhibition (GI50) with SK-MEL-5 melanoma is 0.0231 µM; in the assay with SNB-75 CNS it was 0.0146 µM; in the assay on HCT-116 colon it was 0.0176 µM; with K-562 leukemia, 0.0192 µM. For the same molecule, the concentration for total growth inhibition (TGI) in the assay on SK-MEL-5 melanoma was 1.33 µM and 0.373 µM; with SNB-75 CNS, 0.2 µM and 0.206 µM; in the assay with BT-549 breast, 1.42 µM; in the assay on CCRF-CEM leukemia it was 0.517 µM; in the assay with OVCAR-3 ovarian, 1.76 µM and 1.58 µM; with NCI-H23 lung, 0.0636 µM and 0.0484 µM. The TGI in the assay with HCT-116 colon was 0.261 µM and 0.154 µM; in the assay on SR leukemia, 0.232 µM; with K-562 leukemia, 0.614 µM and 0.145 µM; in the assay on MDA-MB-435, 1.86 µM.

For the molecule `CCOC(=O)C(NC(=O)c1ccccc1)(Nc1ccc(S(=O)(=O)Nc2ccc(OC)nn2)cc1)C(F)(F)F` (stereo not given), the TGI in the assay on SK-MEL-5 melanoma, with SNB-75 CNS, in the assay on BT-549 breast, with CCRF-CEM leukemia, in the assay with OVCAR-3 ovarian and in the assay with NCI-H23 lung was above 100 µM each time. Also, the TGI in the assay on HCT-116 colon, with SR leukemia, in the assay with K-562 leukemia and in the assay with MDA-MB-435 was above 100 µM in each case.

In the case of `O=[N+]([O-])c1ccc2c(N=Nc3ccc4ccccc4c3O)c(O)cc(S(=O)(=O)O)c2c1`, the TGI was 53.6 µM in the assay with SK-MEL-5 melanoma; above 93.6 µM in the assay on SNB-75 CNS; above 100 µM in the assay with BT-549 breast; 22 µM in the assay with CCRF-CEM leukemia; 99.5 µM in the assay on OVCAR-3 ovarian; above 93.4 µM with NCI-H23 lung. The total growth inhibition concentration (TGI) in the assay with HCT-116 colon is above 100 µM; in the assay on SR leukemia, above 69.4 µM; with K-562 leukemia it was above 95.1 µM; with MDA-MB-435, above 100 µM.

As to `CCOP(=O)(OCC)C(C)(CC)/N=C(\N)NC#N` (stereo not given), the TGI with SK-MEL-5 melanoma, in the assay with SNB-75 CNS, in the assay on BT-549 breast, with CCRF-CEM leukemia, in the assay with OVCAR-3 ovarian and with NCI-H23 lung was above 100 µM each time. For the same molecule, the TGI in the assay on HCT-116 colon, with SR leukemia, in the assay on K-562 leukemia and in the assay with MDA-MB-435 was above 100 µM each time.

As for `COc1c(C)c(C/C=C(\C)CCCCO)c(OC)c2ccccc12`, the TGI is 39.5 µM in the assay on SK-MEL-5 melanoma; above 100 µM in the assay on SNB-75 CNS; above 100 µM in the assay on BT-549 breast; 63 µM in the assay on CCRF-CEM leukemia; above 100 µM with OVCAR-3 ovarian; 94.2 µM in the assay on NCI-H23 lung. The TGI in the assay with HCT-116 colon is 88.2 µM; with SR leukemia, 55.6 µM; in the assay with K-562 leukemia it was 67.1 µM; in the assay with MDA-MB-435, 99.2 µM.

Regarding `CC1(C)OC2[C@@H](CO[C@@]3([C@H]4OC(C)(C)O[C@@H]4CO)OC(C)(C)O[C@@H]23)O1` (stereo not given in full), the concentration for total growth inhibition (TGI) in the assay on SK-MEL-5 melanoma, in the assay with SNB-75 CNS, in the assay with BT-549 breast, in the assay with CCRF-CEM leukemia, with OVCAR-3 ovarian and in the assay on NCI-H23 lung was above 100 µM each time. Also, the TGI in the assay with HCT-116 colon, in the assay on SR leukemia, with K-562 leukemia and in the assay with MDA-MB-435 was above 100 µM each time.

With `CC(=O)OC12OC(C)(C3C(=O)N(c4ccccc4)C(=O)C31)N(c1ccccc1)C2=O` (stereo not given), the total growth inhibition concentration (TGI) with SK-MEL-5 melanoma, with SNB-75 CNS, in the assay with BT-549 breast, with CCRF-CEM leukemia, in the assay on OVCAR-3 ovarian and in the assay on NCI-H23 lung was above 100 µM each time. The TGI in the assay with HCT-116 colon, in the assay on SR leukemia, in the assay on K-562 leukemia and in the assay with MDA-MB-435 was above 100 µM each time.

In the case of `CN(C)C=Nc1c2c(nc3ccccc13)CCCC2`, the concentration for total growth inhibition (TGI) in the assay on SK-MEL-5 melanoma, in the assay with SNB-75 CNS, with BT-549 breast, with CCRF-CEM leukemia, in the assay on OVCAR-3 ovarian and with NCI-H23 lung was above 100 µM each time. Moreover, the TGI in the assay on HCT-116 colon, in the assay with SR leukemia, in the assay with K-562 leukemia and with MDA-MB-435 was above 100 µM each time.

As for `Cn1c(=O)oc2cc(C(=S)N3CCCCC3)ccc21`, the TGI with SK-MEL-5 melanoma, in the assay on SNB-75 CNS, with BT-549 breast, in the assay on CCRF-CEM leukemia, in the assay on OVCAR-3 ovarian and in the assay with NCI-H23 lung was above 100 µM each time. Also, the TGI with HCT-116 colon, with SR leukemia, with K-562 leukemia and with MDA-MB-435 was above 100 µM each time.

For the molecule `N#CCN1CCCN(CC#N)CCN(CC#N)CCCN(CC#N)CC1`, the TGI in the assay on SK-MEL-5 melanoma, with SNB-75 CNS, in the assay on BT-549 breast, in the assay with CCRF-CEM leukemia, in the assay with OVCAR-3 ovarian and with NCI-H23 lung was above 100 µM each time. For the same molecule, the TGI with HCT-116 colon, in the assay on SR leukemia, with K-562 leukemia and with MDA-MB-435 was above 100 µM each time.

Consider `COc1cc(/C=C/c2ccc(S(N)(=O)=O)cc2)cc(OC)c1`, for which the TGI in the assay on SK-MEL-5 melanoma amounted to 29.8 µM; with SNB-75 CNS, 53.1 µM; with BT-549 breast, 41.1 µM; with CCRF-CEM leukemia, 52.3 µM; in the assay with OVCAR-3 ovarian, 33.2 µM; in the assay with NCI-H23 lung it was 49.8 µM. Moreover, the TGI worked out at 27.5 µM with HCT-116 colon, 38 µM with SR leukemia, 76.7 µM in the assay on K-562 leukemia and 40 µM with MDA-MB-435. Besides, the GI50 with BT-549 breast was 10.7 µM; with CCRF-CEM leukemia it was 19.9 µM; in the assay with NCI-H23 lung, 22.5 µM; in the assay with SR leukemia it was 19.7 µM; with K-562 leukemia, 28.7 µM; with MDA-MB-435, 18.7 µM.

`COC(=O)[C@@H](NC(=O)c1ccc(CNC(=O)/C(C)=C/c2ccccc2)cc1)C(C)C`: the TGI with SK-MEL-5 melanoma, with SNB-75 CNS, in the assay on BT-549 breast, in the assay with CCRF-CEM leukemia, in the assay with OVCAR-3 ovarian and with NCI-H23 lung was above 100 µM in each case. For the same molecule, the TGI in the assay on HCT-116 colon, with SR leukemia, in the assay with K-562 leukemia and in the assay on MDA-MB-435 was above 100 µM throughout.

For the molecule `COc1ccccc1[C@@H]1CCC2CC[C@@H](c3ccccc3OC)[N+]21Cc1ccccc1` (stereo not given in full), the TGI in the assay on SK-MEL-5 melanoma came out at 1.64 µM; with SNB-75 CNS it was 8.65 µM; in the assay on BT-549 breast, 7.63 µM; in the assay on CCRF-CEM leukemia it was 20.3 µM; in the assay with OVCAR-3 ovarian, 10.7 µM; in the assay on NCI-H23 lung it was 6.63 µM. Moreover, the concentration for total growth inhibition (TGI) with HCT-116 colon was determined as 13.1 µM; in the assay with SR leukemia it was 7.07 µM; in the assay with K-562 leukemia, 12.7 µM; with MDA-MB-435 it was 10.5 µM.

Turning to `O=C1C=CC(=O)[C@H]2C3C=CC(C4C3C3(Cl)C(Cl)=C(Cl)[C@]4(Cl)C3(Cl)Cl)[C@@H]12` (stereo not given in full), the TGI in the assay with SK-MEL-5 melanoma stood at 15.3 µM; in the assay on SNB-75 CNS, 25 µM; in the assay with BT-549 breast, 19.2 µM; with CCRF-CEM leukemia, 16.2 µM; in the assay with OVCAR-3 ovarian, 8.98 µM; in the assay on NCI-H23 lung it was 25.7 µM. The TGI in the assay on HCT-116 colon is 12.9 µM; in the assay with SR leukemia, 9.28 µM; in the assay with K-562 leukemia, 20.4 µM; in the assay on MDA-MB-435, 7.02 µM.

In the case of `NCCN(CCN)/[N+]([O-])=N/O`, the concentration for total growth inhibition (TGI) in the assay with SK-MEL-5 melanoma, with SNB-75 CNS, in the assay with BT-549 breast, in the assay with CCRF-CEM leukemia, in the assay with OVCAR-3 ovarian and in the assay on NCI-H23 lung was above 100 µM in each case. Further, the TGI with HCT-116 colon, with SR leukemia, in the assay with K-562 leukemia and with MDA-MB-435 was above 100 µM in each case.

Turning to `CCOC(=O)CCC(C(=O)OCC)n1nnc2ccc(Nc3c(C)[n+]([O-])c4cc(F)c(OCC)cc4[n+]3[O-])cc21` (stereo not given), the total growth inhibition concentration (TGI) is above 100 µM in the assay on SK-MEL-5 melanoma; above 100 µM in the assay with SNB-75 CNS; above 100 µM in the assay with BT-549 breast; above 100 µM in the assay with CCRF-CEM leukemia; 67.4 µM in the assay with OVCAR-3 ovarian; above 100 µM in the assay with NCI-H23 lung. Besides, the TGI in the assay on HCT-116 colon, with SR leukemia, in the assay on K-562 leukemia and with MDA-MB-435 was above 100 µM each time.

In the case of `O=C(c1cccnc1)N1N=C(c2ccc3c(c2)OCO3)CC1(O)c1cc(F)c(Cl)cc1Cl` (stereo not given), the TGI was 28.8 µM in the assay on SK-MEL-5 melanoma; 39.8 µM in the assay on SNB-75 CNS; 47.9 µM in the assay with BT-549 breast; 75.4 µM in the assay with CCRF-CEM leukemia; 26.3 µM with OVCAR-3 ovarian; above 100 µM with NCI-H23 lung. Moreover, the TGI in the assay with HCT-116 colon was 31.2 µM; in the assay on SR leukemia, 76.4 µM; in the assay on K-562 leukemia, above 100 µM; with MDA-MB-435 it was above 100 µM.

For `O=C1c2c(F)c(F)c(F)c(F)c2SC2=Nc3cccc4cccc(c34)N12`, the TGI in the assay with SK-MEL-5 melanoma is 28.4 µM; with SNB-75 CNS it was 25.5 µM; with BT-549 breast it was 23.9 µM; with CCRF-CEM leukemia, above 25.1 µM; in the assay with OVCAR-3 ovarian it was 7.58 µM; with NCI-H23 lung it was 10.9 µM. Further, the TGI in the assay on HCT-116 colon turned out to be 11.9 µM; in the assay with SR leukemia, 15.2 µM; in the assay on K-562 leukemia, 4.49 µM; in the assay on MDA-MB-435 it was 12.8 µM.

On to `COc1cc2nc3n(c(=O)c2cc1OC)CCCCC3`, for which the TGI with SK-MEL-5 melanoma, with SNB-75 CNS, in the assay with BT-549 breast, in the assay on CCRF-CEM leukemia, with OVCAR-3 ovarian and with NCI-H23 lung was above 100 µM each time. For the same molecule, the TGI in the assay with HCT-116 colon, in the assay with SR leukemia, in the assay on K-562 leukemia and with MDA-MB-435 was above 100 µM each time.

For the molecule `C=C(C)[C@@H]1CCC2=C(CC[C@]3(C)[C@@H]([C@@H](CCC=C(C)C)C(=O)O)[C@H](O)C[C@@]23C)[C@@]1(C)CCC(=O)O`, the TGI in the assay with SK-MEL-5 melanoma, in the assay on SNB-75 CNS, in the assay with BT-549 breast, with CCRF-CEM leukemia, in the assay with OVCAR-3 ovarian and with NCI-H23 lung was above 100 µM throughout. Further, the TGI in the assay with HCT-116 colon, in the assay with SR leukemia, with K-562 leukemia and in the assay with MDA-MB-435 was above 100 µM throughout.
